In ChEMBL document CHEMBL3351541, “Synthesis and analysis of potential α1,3-fucosyltransferase inhibitors” (Bioorg Med Chem, 2014):
Active and inactive are the calls of the source. The rule behind the calls is not given here.

Legend:
[1] = molecular target: T1, 4-galactosyl-N-acetylglucosaminide 3-alpha-L-fucosyltransferase 9 (Homo sapiens) (UniProt Q9Y231); assay: (§1) Inhibition of human recombinant alpha1,3-fucosyltransferase 9 using GDP-[14C]-fucose preincubated for 30 mins by liquid scintillation counting; set-up: concentration or dose not given beside the values
T1 sequence (whole entry): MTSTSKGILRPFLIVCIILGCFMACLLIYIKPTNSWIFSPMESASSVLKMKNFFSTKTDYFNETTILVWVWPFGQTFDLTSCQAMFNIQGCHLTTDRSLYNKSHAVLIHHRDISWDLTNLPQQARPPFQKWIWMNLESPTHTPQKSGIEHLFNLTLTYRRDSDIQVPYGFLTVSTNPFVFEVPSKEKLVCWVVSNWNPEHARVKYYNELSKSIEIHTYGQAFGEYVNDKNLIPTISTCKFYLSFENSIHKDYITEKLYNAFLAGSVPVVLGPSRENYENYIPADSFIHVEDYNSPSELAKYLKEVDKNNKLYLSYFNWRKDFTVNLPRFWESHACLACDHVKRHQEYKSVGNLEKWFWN

[2] = tested on: Helicobacter pylori; assay: Inhibition of Helicobacter pylori recombinant alpha1,3-fucosyltransferase using GDP-[14C]-fucose preincubated for 30 mins by liquid scintillation counting
[3] = molecular target: T2, 4-galactosyl-N-acetylglucosaminide 3-alpha-L-fucosyltransferase 9 (Homo sapiens, UniProt Q9Y231); assay: as §1
T2 sequence (Q9Y231 whole entry): T1 sequence (whole entry)

[4] = tested on: Helicobacter pylori; assay: Inhibition of Helicobacter pylori recombinant alpha1,3-fucosyltransferase using GDP-[14C]-fucose assessed as remaining activity preincubated for 30 mins by liquid scintillation counting

Row | Structure (SMILES) | inhibition [1] | inhibition [2] | IC50 [3] | Ki [3] | Activity [4]
1 | Nc1nc2c(ncn2[C@@H]2O[C@H](COP(=O)(O)OP(=O)(O)OCc3cn([C@@H]4O[C@H](CO)[C@@H](O[C@@H]5O[C@H](CO)[C@H](O)[C@H](O)[C@H]5O)[C@H](O)[C@H]4O)nn3)[C@@H](O)[C@H]2O)c(=O)[nH]1 | 45% |  |  |  | 
2 | C[C@@H](O)[C@H](O)[C@H](O)[C@@H](O)C=O | inactive | Active |  |  | 
3 | O=c1[nH]cnc2c1ncn2[C@@H]1O[C@H](COP(=O)(O)OP(=O)(O)O)[C@@H](O)[C@H]1O | 30% | 65% |  |  | 
4 | C[C@H]1O[C@@H](n2cc(COP(=O)(O)OP(=O)(O)OC[C@H]3O[C@@H](n4cnc5c(=O)[nH]c(N)nc54)[C@H](O)[C@@H]3O)nn2)[C@H](O)[C@@H](O)[C@H]1O |  |  | 134 µM | 190 µM | 
5 | CC(=O)Nc1nc2c(ncn2[C@@H]2O[C@H](COP(=O)(O)OP(=O)(O)OCc3cn([C@@H]4O[C@H](COC(C)=O)[C@H](OC(C)=O)[C@H](OC(C)=O)[C@H]4OC(C)=O)nn3)[C@@H](OC(C)=O)[C@H]2OC(C)=O)c(=O)[nH]1 | inactive | 45% |  |  | 
6 | C[C@@H]1O[C@H](n2cc(COP(=O)(O)OP(=O)(O)OC[C@H]3O[C@@H](n4cnc5c(=O)[nH]c(N)nc54)[C@H](O)[C@@H]3O)nn2)[C@@H](O)[C@H](O)[C@@H]1O |  |  | 139 µM | 137 µM | 
7 | Nc1nc2c(ncn2[C@@H]2O[C@H](COP(=O)(O)OP(=O)(O)OCc3cn([C@@H]4O[C@H](CO)[C@H](O)[C@H](O)[C@H]4O)nn3)[C@@H](O)[C@H]2O)c(=O)[nH]1 |  |  | 247 µM | 186 µM | 
8 | Nc1ncnc2c1ncn2[C@@H]1O[C@H](COP(=O)(O)OP(=O)(O)O)[C@@H](O)[C@H]1O | inactive | Active |  |  | 

Continued, values first:

Row | inhibition [1] | inhibition [2] | IC50 [3] | Ki [3] | Activity [4] | Structure (SMILES)
9 | inactive | Active |  |  |  | Nc1nc2c(ncn2[C@@H]2O[C@H](COP(=O)(O)O)[C@@H](O)[C@H]2O)c(=O)[nH]1
10 |  | < 75% | 59 µM | 77.9 µM |  | Nc1nc2c(ncn2[C@@H]2O[C@H](COP(=O)(O)OP(=O)(O)O)[C@@H](O)[C@H]2O)c(=O)[nH]1
11 | < 75% | < 75% | 94 µM | 80.7 µM |  | Nc1nc2c(ncn2[C@@H]2O[C@H](COP(=O)(O)OP(=O)(O)OP(=O)(O)O)[C@@H](O)[C@H]2O)c(=O)[nH]1 [GUANOSINE TRIPHOSPHATE]
12 | < 80% |  | 49 µM | 50.3 µM | 60% | Nc1nc2c(ncn2[C@H]2C[C@H](O)[C@@H](CO[P@](=O)(O)OP(=O)(O)O)O2)c(=O)[nH]1
13 | 78% |  | 104 µM | 102 µM |  | NC[C@@H]1O[C@H](OP(=O)(O)OP(=O)(O)OC[C@H]2O[C@@H](n3cnc4c(=O)[nH]c(N)nc43)[C@H](O)[C@@H]2O)[C@@H](O)[C@H](O)[C@@H]1O
